# From patent publication US10709709B2, “Substituted carbonucleoside derivatives useful as anticancer agents” (Pfizer Inc., priority 2016, dated 2020)
# Structures can show the parent of a compound that is named as a salt.
# Legend:
# [1] = tested on: A549 lung adenocarcinoma cells; assay: A549 proliferation assay (Cell Titer Glo); format: cell-based; conditions: 7 days with compound, cell viability by Cell Titer Glo (ATP)
# Protocol: A549 lung adenocarcinoma cells (American Type Culture Collection) were maintained in DMEM growth media (Life Technologies) supplemented with 10% v/v heat inactivated fetal bovine serum (Sigma) and cultured at 37° C., 5% CO2. Exponentially growing A549 cells were plated in 96-well black tissue culture treated plates (Corning) at a density of […] in a volume of 100 μl culture media and allowed to adhere overnight at 37° C., 5% CO2. The following day, compound plates were prepared by making nine-point 3.3-fold dilutions in DMSO with a top concentration of 10 mM. Compounds were further diluted in culture media and 11 μl was added to the cells (final top assay concentration was 10 μM and DMSO was 0.2%). Cells were incubated with compound at 37° C., 5% CO2 for 7 days with media and compound replacement on day 4. Cell viability was assayed on Day 7 by adding 100 μl Cell Titer Glo (Promega) reagent to the plate to measure the amount of ATP present in the cells. Luminescence was read using the Envision 2104 Multilabel Reader (Perkin Elmer). The 50% inhibitory concentration (IC50) was determined using a 4-parameter fit model normalized to the DMSO control in dose response.
# [2] = biological target: PRMT5/MEP50 protein complex (Homo sapiens (Human), UniProt O14744); assay: PRMT5 biochemical assay (3H-SAM methylation of H4(1-21) peptide, filter plate scintillation); conditions: 10 nM PRMT5/MEP50 complex, 200 nM H4(1-21) peptide, 1 uM SAM, 25 minute incubation at room temperature
# Method in brief: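 Scintillation read-out: after 25 min at room temperature and a TCA stop, tritiated H4(1-21) product (peptide 200 nM) is caught on a filter plate. Reaction holds 10 nM PRMT5/MEP50 and 1 uM 3H-labelled plus cold SAM in 50 mM Tris pH 8.5 with MgCl2, EDTA and TCEP. IC50 values come from a 4-parameter dose-response fit.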
# PRMT5/MEP50 protein complex, sequence (O14744 other isoform, or with tags, fused parts or gaps): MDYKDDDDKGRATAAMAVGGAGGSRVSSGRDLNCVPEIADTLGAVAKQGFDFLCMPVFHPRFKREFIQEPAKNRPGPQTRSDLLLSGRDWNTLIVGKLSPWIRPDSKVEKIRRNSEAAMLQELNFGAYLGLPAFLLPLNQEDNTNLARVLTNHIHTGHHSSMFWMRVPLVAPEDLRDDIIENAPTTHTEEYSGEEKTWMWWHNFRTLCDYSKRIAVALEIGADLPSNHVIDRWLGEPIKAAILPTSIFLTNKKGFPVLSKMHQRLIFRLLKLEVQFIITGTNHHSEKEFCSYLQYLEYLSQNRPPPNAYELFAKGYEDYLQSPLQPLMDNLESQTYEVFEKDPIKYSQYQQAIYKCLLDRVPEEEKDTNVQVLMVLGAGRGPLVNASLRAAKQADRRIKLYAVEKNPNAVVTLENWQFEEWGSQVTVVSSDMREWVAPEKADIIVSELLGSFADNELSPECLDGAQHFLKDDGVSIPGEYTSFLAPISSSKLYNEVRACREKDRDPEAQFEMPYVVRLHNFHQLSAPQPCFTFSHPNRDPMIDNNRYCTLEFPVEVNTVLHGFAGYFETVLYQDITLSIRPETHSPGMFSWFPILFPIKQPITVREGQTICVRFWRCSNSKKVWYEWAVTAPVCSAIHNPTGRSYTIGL
# PRMT5/MEP50 protein complex, sequence (Q9BQA1 whole entry partner): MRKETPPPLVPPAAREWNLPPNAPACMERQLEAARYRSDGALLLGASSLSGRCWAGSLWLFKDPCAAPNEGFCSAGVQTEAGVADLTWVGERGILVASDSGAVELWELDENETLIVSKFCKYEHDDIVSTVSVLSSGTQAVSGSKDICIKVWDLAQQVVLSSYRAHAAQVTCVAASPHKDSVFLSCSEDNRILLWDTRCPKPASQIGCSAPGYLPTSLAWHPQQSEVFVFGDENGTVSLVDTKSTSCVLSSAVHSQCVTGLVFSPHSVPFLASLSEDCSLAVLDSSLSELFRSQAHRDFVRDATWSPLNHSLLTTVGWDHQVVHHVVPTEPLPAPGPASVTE
"IC50 ([1]; Homo sapiens, A549, 168 h) [nM]",IC50 [2] [nM],IC50 ([1]; hydrochloride) [nM],IC50 [1] [nM],Structure (SMILES),"IC50 ([1]; Homo sapiens, 168 h) [nM]"
443,1,,,"Nc1ncnc2c1c(Cl)cn2[C@@H]1C[C@H](Oc2ccc(F)c3c2CNCC3)[C@@H](O)[C@H]1O [Example 133, (1S,2S,3R,5S)-3-(4-amino-5-chloro-7H-pyrrolo[2,3-d]pyrimidin-7-yl)-5-((5-fluoro-1,2,3,4-tetrahydroisoquinolin-8-yl)oxy)cyclopentane-1,2-diol]",
185,1,,,"Nc1ncnc2c1c(F)cn2[C@@H]1C[C@H](Oc2ccc(F)c3c2CNCC3)[C@@H](O)[C@H]1O [Example 100, (1S,2S,3R,5S)-3-(4-amino-5-fluoro-7H-pyrrolo[2,3-d]pyrimidin-7-yl)-5-((5-fluoro-1,2,3,4-tetrahydroisoquinolin-8-yl)oxy)cyclopentane-1,2-diol]",
920,2,,,"Cc1ncnc2c1ccn2[C@@H]1C[C@H](Oc2cc(F)cc3c2CNCC3)[C@@H](O)[C@H]1O [Example 85, (1S,2S,3S,5R)-3-((6-fluoro-1,2,3,4-tetrahydroisoquinolin-8-yl)oxy)-5-(4-methyl-7H-pyrrolo[2,3-d]pyrimidin-7-yl)cyclopentane-1,2-diol]",
,2,2180,,"Cc1ncnc2c1ccn2[C@@H]1C[C@H](Oc2ccc(F)c3c2CNCC3C)[C@@H](O)[C@H]1O (single isomer, unassigned) [Example 182, hydrochloride]",
1490,11,,,"Cc1ncnc2c1ccn2[C@@H]1C[C@H](Oc2ccc(I)c3c2CNCC3)[C@@H](O)[C@H]1O [Example 98, (1S,2S,3S,5R)-3-((5-iodo-1,2,3,4-tetrahydroisoquinolin-8-yl)oxy)-5-(4-methyl-7H-pyrrolo[2,3-d]pyrimidin-7-yl)cyclopentane-1,2-diol]",
500,2,,,"Cc1ncnc2c1ccn2[C@@H]1C[C@H](Oc2ccc(F)c3c2CNCC3)[C@@H](O)[C@H]1O [Example 84, (1S,2S,3S,5R)-3-((5-fluoro-1,2,3,4-tetrahydroisoquinolin-8-yl)oxy)-5-(4-methyl-7H-pyrrolo[2,3-d]pyrimidin-7-yl)cyclopentane-1,2-diol]",
766,2,,,"Cc1ncnc2c1ccn2[C@@H]1C[C@H](Oc2cc(-c3cn[nH]c3)cc3c2CNCC3)[C@@H](O)[C@H]1O [Example 165, (1S,2S,3S,5R)-3-((6-(1H-pyrazol-4-yl)-1,2,3,4-tetrahydroisoquinolin-8-yl)oxy)-5-(4-methyl-7H-pyrrolo[2,3-d]pyrimidin-7-yl)cyclopentane-1,2-diol]",
39,3,,,"Cc1ncnc2c1ccn2[C@@H]1C[C@H](Oc2cc(-c3cn[nH]c3)c(F)c3c2CNCC3)[C@@H](O)[C@H]1O [Example 166, (1S,2S,3S,5R)-3-((5-fluoro-6-(1H-pyrazol-4-yl)-1,2,3,4-tetrahydroisoquinolin-8-yl)oxy)-5-(4-methyl-7H-pyrrolo[2,3-d]pyrimidin-7-yl)cyclopentane-1,2-diol]",
4060,2,,,"Cc1ncc2c(F)cn([C@@H]3C[C@H](Oc4cc(F)c(F)c5c4CNCC5)[C@@H](O)[C@H]3O)c2n1 [Example 178, (1S,2S,3S,5R)-3-((5,6-difluoro-1,2,3,4-tetrahydroisoquinolin-8-yl)oxy)-5-(5-fluoro-2-methyl-7H-pyrrolo[2,3-d]pyrimidin-7-yl)cyclopentane-1,2-diol]",
6470,4,,,"Cc1ncnc2c1ccn2[C@@H]1C[C@H](Oc2cccc3c2CC(N)CO3)[C@@H](O)[C@H]1O (single isomer, unassigned) [Example 188]",
442,1,,,"N#Cc1cc2c(c(O[C@H]3C[C@@H](n4cc(Br)c5c(N)ncnc54)[C@H](O)[C@@H]3O)c1)CNCC2 [Example 120, 8-(((1S,2S,3S,4R)-4-(4-amino-5-bromo-7H-pyrrolo[2,3-d]pyrimidin-7-yl)-2,3-dihydroxycyclopentyl)oxy)-1,2,3,4-tetrahydroisoquinoline-6-carbonitrile]",
195,1,,,"Cc1ncnc2c1ccn2[C@@H]1C[C@H](Oc2cc(Br)cc3c2CNCC3)[C@@H](O)[C@H]1O [Example 89, (1S,2S,3S,5R)-3-((6-bromo-1,2,3,4-tetrahydroisoquinolin-8-yl)oxy)-5-(4-methyl-7H-pyrrolo[2,3-d]pyrimidin-7-yl)cyclopentane-1,2-diol]",
378,2,,,"Cc1ncnc2c1ccn2[C@@H]1C[C@H]([C@H](O)c2cccc3c2CNCC3)[C@@H](O)[C@H]1O [Example 56, (1S,2R,3R,5R)-3-((S)-hydroxy(1,2,3,4-tetrahydroisoquinolin-8-yl)methyl)-5-(4-methyl-7H-pyrrolo[2,3-d]pyrimidin-7-yl)cyclopentane-1,2-diol]",
1560,2,,,"Cc1ncnc2c1c(F)cn2[C@@H]1C[C@H](Oc2cc(Cl)cc3c2CNCC3)[C@@H](O)[C@H]1O [Example 176, (1S,2S,3S,5R)-3-((6-chloro-1,2,3,4-tetrahydroisoquinolin-8-yl)oxy)-5-(5-fluoro-4-methyl-7H-pyrrolo[2,3-d]pyrimidin-7-yl)cyclopentane-1,2-diol]",
545,1,,,"Cc1cc2c(c(O[C@H]3C[C@@H](n4ccc5c(C)ncnc54)[C@H](O)[C@@H]3O)c1)CNCC2 [Example 88, (1S,2S,3R,5S)-3-(4-methyl-7H-pyrrolo[2;3-d]pyrimidin-7-yl)-5-[(6-methyl-1,2,3,4-tetrahydroisoquinolin-8-yl)oxy]cyclopentane-1,2-diol]",
640,1,,,"Nc1ncnc2c1c(Br)cn2[C@@H]1C[C@H](Oc2ccc(F)c3c2CNCC3)[C@@H](O)[C@H]1O [Example 134, (1S,2S,3R,5S)-3-(4-amino-5-bromo-7H-pyrrolo[2,3-d]pyrimidin-7-yl)-5-((5-fluoro-1,2,3,4-tetrahydroisoquinolin-8-yl)oxy)cyclopentane-1,2-diol]",
140,1,,,"Cc1ncnc2c1ccn2[C@@H]1C[C@H](Oc2cc(Cl)c(F)c3c2CNCC3)[C@@H](O)[C@H]1O [Example 93, (1S,2S,3S,5R)-3-((6-chloro-5-fluoro-1,2,3,4-tetrahydroisoquinolin-8-yl)oxy)-5-(4-methyl-7H-pyrrolo[2,3-d]pyrimidin-7-yl)cyclopentane-1,2-diol]",
2370,4,,,"Cc1ncnc2c1c(F)cn2[C@@H]1C[C@H](Oc2cc(F)c(F)c3c2CNCC3)[C@@H](O)[C@H]1O [Example 177, (1S,2S,3S,5R)-3-((5,6-difluoro-1,2,3,4-tetrahydroisoquinolin-8-yl)oxy)-5-(5-fluoro-4-methyl-7H-pyrrolo[2,3-d]pyrimidin-7-yl)cyclopentane-1,2-diol]",
,1,,2,"Cc1ncnc2c1ccn2[C@@H]1C[C@H](Oc2cc(C(F)F)c(F)c3c2CNCC3C)[C@@H](O)[C@H]1O (stereo partly drawn) [Example 212, (1S,2S,3S,5R)-3-((6-(difluoromethyl)-5-fluoro-4-methyl-1,2,3,4-tetrahydroisoquinolin-8-yl)oxy)-5-(4-methyl-7H-pyrrolo[2,3-d]pyrimidin-7-yl)cyclopentane-1,2-diol]",

Structure (SMILES),"IC50 ([1]; Homo sapiens, A549, 168 h) [nM]",IC50 [2] [nM],IC50 ([1]; hydrochloride) [nM],IC50 [1] [nM],"IC50 ([1]; Homo sapiens, 168 h) [nM]"
"Cc1ncnc2c1ccn2[C@@H]1C[C@H]([C@H](O)c2cc(F)c(F)c(F)c2)[C@@H](O)[C@H]1O [Example 13, (1S,2R,3R,5R)-3-[(S)-hydroxy(3,4,5-trifluorophenyl)methyl]-5-(4-methyl-7H-pyrrolo[2,3-d]pyrimidin-7-yl)cyclopentane-1,2-diol]",,16,,,971
